# Laboratory results as given in US7271239B2, “D-isomers of antimicrobial peptide” (The Research Foundation of State University of New York, priority 2004, dated 2007).
# Where no end group is shown, it is not given here.
# Test system: C. albicans DIS
# Test: Killing assay in whole human saliva
# Experimental: FIG. 1. Candidacidal activity of MUC7 12-mer-L, MUC7 12-mer-D, Hsn5 12-mer, and Magainin-II in whole human saliva (WHS). Each peptide at final concentration of 25, 50, and 100 μM was incubated with C. albicans (DIS isolate at 1×10^5 cells/ml) and 20 μl of clarified or unclarified saliva (SL; hatched bars), saliva containing Protease inhibitor cocktail (PIC) (SL+PIC; filled bars), or saliva containing ethylenediamine tetraacetic acid (EDTA) (SL+EDTA; clear bars) at 37° C. for 1.5 h. At the end of incubation, the samples were diluted 20-fold and aliquots plated on SDA. The colony forming units (CFU) were counted after 24 h of incubation. The loss of C. albicans viability was determined by the equation (1−CFU of the test group/CFU of the control group)×100%. The data represent three individual trials, and in each trial the sample was duplicated; the error bars represent standard deviation.
# FIG. 4. […] Stimulated whole saliva was collected from 5 healthy subjects. Peptides (50 μM) were incubated with C. albicans cells (1×10^5) in the each individual saliva containing PIC (SL+PIC) at 37° C. for 1.5 hr and the loss of the cell viability was determined. Values represent the mean±S.D. (n=5).
# Killing assays in saliva. Unclarified saliva (unstimulated whole saliva) was collected from five healthy individuals during the fasting. Clarified saliva was obtained by passing the unclarified saliva through the 0.2 μm pore size sterile syringe filter (VWR scientific products, West Chester, Pa.). Candidacidal activity assays were performed as described previously (4), except the phosphate buffer was substituted with saliva. […] Saliva without peptides was a blank control. After incubation at 37° C. for 1.5 h, the reactions were diluted 20-fold in PB and aliquots (50 μl, ˜120 cells) of each sample were plated on SDA. The plates were incubated at 37° C. for 1 day aerobically and the number of colony-forming units (CFUs) was counted. Percentage of killing was calculated as (1−amount of viable cells in the test group)/(amount of viable cells in the control group)×100%.
sequence,measurement,setting,value
GIGKFLHSAKKFGKAFVGEIMNS [Magainin-II],candidacidal activity (killing),"100 μM, clarified saliva, no PIC/EDTA",0%
same,killing,"100 μM, unclarified saliva, no PIC/EDTA",0%
same,percent loss of cell viability,"clarified saliva, PIC+ (Table 1)",94.42^± %
same,percent loss of cell viability,"clarified saliva, PIC− (Table 1)",0.00%
